Test results taken from ChEMBL document CHEMBL1125546, “Novel 5-HT3 antagonists. Isoquinolinones and 3-aryl-2-pyridones” (J Med Chem, 1992).

Assays:
Mus musculus = test: Acute lethal toxicity in mouse at 8.4 mg/kg when administered intravenously; value = 5/10; type: organism-based; parameters: dose 8.4 mg/kg, route intravenous; conditions: in vivo, iv
[1] = Compound was evaluated for number of emetic episodes in ferrets administered intravenously at 0.1 mg/kg; type: functional, Mustela putorius furo; conditions: route intravenous
Canis familiaris [2] = test: Compound was evaluated for protection against cisplatin-induced emesis by measuring number of emetic episodes in dogs administered perorally at 0.3 mg/kg; type: functional, Canis lupus familiaris; conditions: route oral
[3] = Compound was evaluated for protection against cisplatin-induced emesis by measuring number of retches in ferrets administered perorally at 1.0 mg/kg; type: functional, Mustela putorius furo; conditions: route oral
Canis familiaris [4] = test: Compound was evaluated for protection against cisplatin-induced emesis by measuring number of emetic episodes in dogs administered intravenously at 0.03 mg/kg; type: functional, Canis lupus familiaris; conditions: route intravenous
Mustela putorius furo [5] = test: Compound was evaluated for number of emetic episodes in ferrets administered perorally at 0.1 mg/kg; type: functional; conditions: route oral
[6] = Compound was evaluated for protection against cisplatin-induced emesis by measuring number of retches in ferrets administered perorally at 0.3 mg/kg; type: functional, Mustela putorius furo; conditions: route oral
Mustela putorius furo [7] = test: Compound was evaluated for number of emetic episodes in ferrets administered perorally at 0.3 mg/kg; type: functional; conditions: route oral
Rattus norvegicus = test: Inhibitory activity against Bezold-jarisch functional assay, inducing a transient bradycardia upon intravenous administration of 5-hydroxytryptamine-(10 ug/kg) in anesthetized rats.; conditions: read-out: ID50 (the source's name)
[8] = Compound was evaluated for number of emetic episodes in ferrets administered intravenously at 1.0 mg/kg; type: functional, Mustela putorius furo; conditions: route intravenous
Mustela putorius furo [9] = test: Compound was evaluated for number of emetic episodes in ferrets administered perorally at 1.0 mg/kg; type: functional; conditions: route oral
Canis familiaris [10] = test: Compound was evaluated for protection against cisplatin-induced emesis by measuring number of retches in dogs administered intravenously at 0.1 mg/kg.; type: functional, Canis lupus familiaris; conditions: route intravenous
Canis familiaris [11] = test: Compound was evaluated for protection against cisplatin-induced emesis by measuring number of emetic episodes in dogs administered intravenously at 0.3 mg/kg; type: functional, Canis lupus familiaris; conditions: route intravenous
[12] = Compound was evaluated for number of emetic episodes in ferrets administered intravenously at 0.3 mg/kg; type: functional, Mustela putorius furo; conditions: route intravenous
Canis familiaris [13] = test: Compound was evaluated for protection against cisplatin-induced emesis by measuring number of retches in dogs administered perorally at 0.3 mg/kg; type: functional, Canis lupus familiaris; conditions: route oral
Canis familiaris [14] = test: Compound was evaluated for protection against cisplatin-induced emesis by measuring number of emetic episodes in dogs administered perorally at 1.0 mg/kg; type: functional, Canis lupus familiaris; conditions: route oral
Canis familiaris [15] = test: Compound was evaluated for protection against cisplatin-induced emesis by measuring number of retches in dogs administered perorally at 3.0 mg/kg; type: functional, Canis lupus familiaris; conditions: route oral
Canis familiaris [16] = test: No. of emetic episodes in dogs when administered perorally at 3.0 mg/kg; type: functional, Canis lupus familiaris; conditions: route oral
[17] = Compound was evaluated for protection against cisplatin-induced emesis by measuring number of retches in ferrets administered perorally at 0.1 mg/kg; type: functional, Mustela putorius furo; conditions: route oral
Canis familiaris [18] = test: Compound was evaluated for protection against cisplatin-induced emesis by measuring number of emetic episodes in dogs administered intravenously at 0.1 mg/kg; type: functional, Canis lupus familiaris; conditions: route intravenous
Canis familiaris [19] = test: Compound was evaluated for protection against cisplatin-induced emesis by measuring number of retches in dogs administered intravenously at 0.03 mg/kg; type: functional, Canis lupus familiaris; conditions: route intravenous
Canis familiaris [20] = test: Compound was evaluated for protection against cisplatin-induced emesis by measuring number of retches in dogs administered intravenously at 0.3 mg/kg; type: functional, Canis lupus familiaris; conditions: route intravenous
Canis familiaris [21] = test: Compound was evaluated for protection against cisplatin-induced emesis by measuring number of retches in dogs administered perorally at 1.0 mg/kg; type: functional, Canis lupus familiaris; conditions: route oral

For `Cc1nccn1CC1CCc2c(c3ccccc3n2C)C1=O` (stereo unspecified) [ONDANSETRON], the Acute lethal toxicity (Mus musculus) was “Partially active”, the “No. of emetic episodes” value [1] was 6.3 and the No. of retches [1] was 114. The “No. of emetic episodes” value (Canis familiaris [2]) was 9, the No. of retches [3] was 39.5 and the “No. of emetic episodes” value (Canis familiaris [4]) was 10.5. For the same compound, the “No. of emetic episodes” value (Mustela putorius furo [5]) was 8.5, the No. of retches [6] was 84.8 and the “No. of emetic episodes” value (Mustela putorius furo [7]) was 6.3. For the same compound, the ED50 (Rattus norvegicus) was 0.86 µg/kg, the “No. of emetic episodes” value [8] was 0 and the No. of retches [8] was 2.5. For the same compound, the “No. of emetic episodes” value (Mustela putorius furo [9]) was 2.3, the No. of retches (Canis familiaris [10]) was 9 and the “No. of emetic episodes” value (Canis familiaris [11]) was 4.1. The “No. of emetic episodes” value [12] was 3.5, the No. of retches [12] was 42.5 and the No. of retches (Canis familiaris [13]) was 112.8. For the same compound, the “No. of emetic episodes” value (Canis familiaris [14]) was 2.8, the No. of retches (Canis familiaris [15]) was 22.8 and the “No. of emetic episodes” value (Canis familiaris [16]) was 2. For the same compound, the No. of retches [17] was 125.3, the “No. of emetic episodes” value (Canis familiaris [18]) was 2.2 and the No. of retches (Canis familiaris [19]) was 118.8. For the same compound, the No. of retches (Canis familiaris [20]) was 35.4 and the No. of retches (Canis familiaris [21]) was 29.8.
